Test results reported in patent US20260132128A1, “COMPOUND FOR RECOVERING P53 MUTATION FUNCTION AND USE THEREOF” (SHENZHEN ZHONGGE BIOLOGICAL TECHNOLOGY CO., LTD., priority 2022, published 2026).
Marks after values point to notes of the source that are not given here.

Tests used:
p53 Y220C [1] = molecular target: T1, p53 Y220C (Homo sapiens, UniProt P04637, P309S/R273H/Y220C); test: DNA binding test (HTRF): binding of P53Y220C protein to DNA; assay type: biochemical; conditions: HTRF, activation of p53 Y220C (aa 94-312) binding to biotin DNA
T1 construct: a truncated mutant containing only amino acids 94-312 of p53; made in house; host or cells: E. coli
Procedure: (§1) In order to detect the ability of the aforementioned compounds to increase the binding of P53Y220C protein to DNA, the binding activity of p53 Y220C was measured by homogeneous time-resolved fluorescence (HTRF). Recombinant His-tagged p53 Y220C for HTRF measurement was expressed in bacteria E. coli. The recombinant protein was a truncated mutant containing only amino acids 94-312 of p53, and its sequence was […] […] VEGNLR […] TFRh[…] […]. The sense strand of the DNA double strand was 5′-[…]-3′, with a biotin tag at the 5′ end for activity assay, and the antisense strand was 5′-[…]-3′ 40 mL of assay buffer (20 mM Tris HCL, pH 7.5, 50 mM NaCl, 2 mM MgCl2, 0.02% Tween 20, 0.01% BSA, 1 mM DTT) was prepared. 10 mM compound was prepared and subjected to 3-fold dilution to obtain 10 dose gradient dilutions of the compound. 20 nL of the compound was added to a 384-well assay plate (PerkinElmer 6007299) using an Echo 655 Liquid Handler. P53Y220C protein was dissolved in assay buffer to reach a final concentration of 150 nM, and 5 μL thereof was added to each well, and incubated at room temperature for 5 min. DNA was dissolved in assay buffer to reach a final concentration of 150 nM, and 5 μL thereof was added to each well, and incubated at room temperature for 15 min. Anti 6HIS-XL665 (Cisbio 61HISXLB) was dissolved in assay buffer to reach a final concentration of 20 nM, and 5 μL thereof was added to each well. Streptavidin-Eu cryptate (Cisbio 610SAKLA) was dissolved in assay buffer to reach a final concentration of 0.625 nM, and 5 μL thereof was added to each well, and incubated at 27° C. for 1 hour. The plate was then read for signal values on an Envision (PerkinElmer 2105-0020) plate reader at 665 nm and 615 nm, respectively. […] Activation rate={(A-C)/(C)}*100%, A=(signal value at 665 nm/signal value at 615 nm); C=average signal of negative control (wherein, negative control referred to 0.1% DMSO).

p53 Y220C [2] = molecular target: T2, p53 Y220C (Homo sapiens, UniProt P04637, Y220C); test: as above; assay type: biochemical; conditions: multiple ratio of EC50 of the compound to the reference compound, DNA binding test
T2 construct: a truncated mutant containing only amino acids 94-312 of p53; made in house; host or cells: E. coli
Procedure: as §1

NUGC-3 cells = test: NUGC-3 cell proliferation assay (CTG); assay type: cell-based, human; conditions: for Compound GI50 (nM)/Reference compound GI50 (nM): multiple ratio of GI50 of the compound to the reference compound; for GI50: Homo sapiens, NUGC-3, 144 h, 6 days, CTG
Procedure: In order to detect the inhibitory effect of the aforementioned compounds on the proliferation ability of NUGC-3 cells, 250 NUGC-3 cells (Nanjing Cobioer Biosciences Co., Ltd., CBP60492) were seeded into a 384-well plate (Corning 3765), 35 μL per well, and incubated overnight in a constant temperature incubator at 37° C. and 5% CO2. Then, 40 nL of the compound was added to the 384-well plate using an Echo 655 Liquid Handler, with a maximum final concentration of 10 μM, 1:3 serial dilutions, and a total of 10 doses. The culture was performed at 37° C. and 5% CO2 for 6 days. The plate was taken out from the incubator and equilibrated at room temperature for 10 minutes. 20 μL of CTG (Promage G7572) was added to each well of the plate according to the platemap. The plate was centrifuged at 1000 rpm for 1 min. The lysis of cells was induced by mixing on a shaker for 2 min. The plate was centrifuged at 1000 rpm for 1 min. Incubation was performed at room temperature for 10 min to stabilize luminescence signals. Luminescence values were recorded by Envision (PerkinElmer 2105-0020). GraphPad 9.0 was used to fit the inhibition rate and compound concentration into a nonlinear regression curve (dose response-variable slope) to calculate GI50, inhibition rate={1−(A−B)/(C−B)}*100%, A=signal value of compound; B=average signal of blank control; C=average signal of negative control (wherein negative control was 0.1% DMSO).

Row | EC50 (p53 Y220C [1]) [nM] | SMILES | Compound EC50 (nM)/Reference compound EC50 (nM) (p53 Y220C [2]) | Compound GI50 (nM)/Reference compound GI50 (nM) (NUGC-3 cells) | GI50 (NUGC-3 cells) [nM]
1 | 100 to 500 | CNC(=O)c1ccc(NCC#Cc2nc3c(NC4CCC(N5CC6CCC(C5)O6)CC4)cccn3c2CC(F)(F)F)c(OC)c1 (stereo not drawn) [Compound 34] | C (C: EC50 of the compound≥3*EC50 of the reference compound) | C (C: GI50 of the compound ≥ 3 * GI50 of the reference compound) | 
2 |  | CNC(=O)c1ccc(NCC#Cc2nc3c(NC4CC[C@@H](N5CCCC5)C[C@@H]4F)cccn3c2CC(F)(F)F)c(OC)c1 (stereo partly drawn) [Compound 41] | B (B: EC50 of the reference compound<EC50 of the compound≤3.0*EC50 of the reference compound) | B (B: GI50 of the reference compound < GI50 of the compound ≤ 3.0 * GI50 of the reference compound) | < 1000
3 |  | CNC(=O)c1ccc(NCC#Cc2cc3c(NC4CC[C@@H](N5CC6(COC6)C5)C[C@@H]4F)ccnn3c2CC(F)(F)F)c(OC)c1 (stereo partly drawn) [Compound 68] | C (C: EC50 of the compound≥3*EC50 of the reference compound) | C (C: GI50 of the compound ≥ 3 * GI50 of the reference compound) | 
4 |  | COc1cc(C(=O)NC2CC(F)C2)ccc1NCC#Cc1nc2c(NC3CC[C@@H](N4CC5(COC5)C4)C[C@@H]3F)cccn2c1CC(F)(F)F (stereo partly drawn) [Compound 56] | C (C: EC50 of the compound≥3*EC50 of the reference compound) | C (C: GI50 of the compound ≥ 3 * GI50 of the reference compound) | 
5 | < 100 | CONC(=O)c1ccc(NCC#Cc2nc3c(N[C@@H]4CC[C@@H](N5CC6(COC6)C5)C[C@@H]4F)cccn3c2CC(F)(F)F)c(OC)c1 [Compound 53] |  |  | 
6 |  | CNC(=O)c1ccc(NCC#Cc2cc3c(N[C@@H]4CCN(C)C[C@@H]4F)ccnn3c2CC(F)(F)F)c(OC)c1 [Compound 85] | C (C: EC50 of the compound≥3*EC50 of the reference compound) | C (C: GI50 of the compound ≥ 3 * GI50 of the reference compound) | 
7 |  | CNC(=O)c1ccc(NCC#Cc2nc3c(N[C@@H]4CCC(N5CCCCC5)C[C@@H]4F)cccn3c2CC(F)(F)F)c(OC)c1 (stereo partly drawn) [Compound 43] | C (C: EC50 of the compound≥3*EC50 of the reference compound) | C (C: GI50 of the compound ≥ 3 * GI50 of the reference compound) | 
8 |  | CONC(=O)c1ccc(NCC#Cc2nc3c(NC4CC[C@@H](N5CC6(COC6)C5)C[C@@H]4F)cccn3c2CC(F)(F)F)c(OC)c1 (stereo partly drawn) [Compound 53] | A (A: EC50 of the compound≤EC50 of the reference compound) | C (C: GI50 of the compound ≥ 3 * GI50 of the reference compound) | < 1000
9 |  | CNC(=O)c1ccc(NCC#Cc2nc3c(NC4CC[C@@H](N5CC6(CCOCC6)C5)C[C@@H]4F)cccn3c2CC(F)(F)F)c(OC)c1 (stereo partly drawn) [Compound 46] | A (A: EC50 of the compound≤EC50 of the reference compound) | B (B: GI50 of the reference compound < GI50 of the compound ≤ 3.0 * GI50 of the reference compound) | < 1000
10 |  | COc1cc(NCC#Cc2nc3c(NC4CCN(C)CC4)cccn3c2CC(F)(F)F)c(NC(C)=O)cn1 [Compound 26] | C (C: EC50 of the compound≥3*EC50 of the reference compound) | C (C: GI50 of the compound ≥ 3 * GI50 of the reference compound) | 
11 |  | CNC(=O)c1ccc(NCC#Cc2nc3c(NC4CC[C@@H](N5CC6(COC6)C5)C[C@@H]4F)cccn3c2CC(F)(F)F)c(OCCF)c1 (stereo partly drawn) [Compound 63] | B (B: EC50 of the reference compound<EC50 of the compound≤3.0*EC50 of the reference compound) | C (C: GI50 of the compound ≥ 3 * GI50 of the reference compound) | 
12 |  | CNC(=O)c1ccc(NCC#Cc2cc3c(NC4CC[C@@H](N5CC6(COC6)C5)C[C@@H]4F)cccn3c2CC(F)(F)F)c(OC)c1 (stereo partly drawn) [Compound 65] | B (B: EC50 of the reference compound<EC50 of the compound≤3.0*EC50 of the reference compound) | A (A: GI50 of the compound ≤ GI50 of the reference compound) | < 1000
13 | < 100 | CNC(=O)c1ccc(NCC#Cc2nc3c(N[C@@H]4CC[C@@H](N5CC6(CCC6)C5)C[C@@H]4F)cccn3c2CC(F)(F)F)c(OC)c1 [Compound 42] |  |  | 
14 |  | CNC(=O)c1ccc(NCC#Cc2nc3c(NC4CC[C@@H](N5CC6(COC6)C5)C[C@@H]4F)cccn3c2CC(F)(F)F)c(OC2COC2)c1 (stereo partly drawn) [Compound 60] | B (B: EC50 of the reference compound<EC50 of the compound≤3.0*EC50 of the reference compound) | C (C: GI50 of the compound ≥ 3 * GI50 of the reference compound) | 
15 |  | CNC(=O)c1ccc(NCC#Cc2nc3c(NC4CC[C@@H](N5CC6(COC6)C5)C[C@@H]4F)cccn3c2CC(F)(F)F)c(OCC(F)(F)F)c1 (stereo partly drawn) [Compound 59] | B (B: EC50 of the reference compound<EC50 of the compound≤3.0*EC50 of the reference compound) | C (C: GI50 of the compound ≥ 3 * GI50 of the reference compound) | 
16 | < 100 | CNC(=O)c1ccc(NCC#Cc2nc3c(N[C@@H]4CC[C@@H](N5CC6(COC6)C5)C[C@@H]4F)cccn3c2CC(F)(F)F)c(OCF)c1 [Compound 58] |  |  | 
17 | < 100 | CNC(=O)c1ccc(NCC#Cc2nc3c(N[C@@H]4CC[C@@H](N5CC6(CCOCC6)C5)C[C@@H]4F)cccn3c2CC(F)(F)F)c(OC)c1 [Compound 46] |  |  | 
18 |  | COc1cc(C(=O)NCC(F)F)ccc1NCC#Cc1nc2c(NC3CC[C@@H](N4CC5(COC5)C4)C[C@@H]3F)cccn2c1CC(F)(F)F (stereo partly drawn) [Compound 55] | B (B: EC50 of the reference compound<EC50 of the compound≤3.0*EC50 of the reference compound) | C (C: GI50 of the compound ≥ 3 * GI50 of the reference compound) | 
19 |  | CNC(=O)c1ccc(NCC#Cc2nc3c(NC4CC[C@@H](N5CC6(COC6)C5)C[C@@H]4F)cccn3c2CC(F)(F)F)c(OCC(F)F)c1 (stereo partly drawn) [Compound 62] | B (B: EC50 of the reference compound<EC50 of the compound≤3.0*EC50 of the reference compound) | C (C: GI50 of the compound ≥ 3 * GI50 of the reference compound) | 
20 |  | CNC(=O)c1ccc(NCC#Cc2nc3c(NC4CC[C@@H](N5CC6(COC6)C5)C[C@@H]4F)cccn3c2CC(F)(F)F)c(OC2CCC2)c1 (stereo partly drawn) [Compound 61] | B (B: EC50 of the reference compound<EC50 of the compound≤3.0*EC50 of the reference compound) | C (C: GI50 of the compound ≥ 3 * GI50 of the reference compound) | 
21 | < 100 | CNC(=O)c1ccc(NCC#Cc2nc3c(N[C@@H]4CC[C@@H](N5CC6(COC6)C5)C[C@@H]4F)cccn3c2CC(F)(F)F)c(OC2CC2)c1 [Compound 57] |  |  | 
22 | < 100 | CNC(=O)c1ccc(NCC#Cc2nc3c(N[C@@H]4CC[C@@H](N5CCCC5)C[C@@H]4F)cccn3c2CC(F)(F)F)c(OC)c1 [Compound 41] |  |  | 
23 |  | CNC(=O)c1ccc(NCC#Cc2nc3c(NC4CC[C@@H](N5CC6(CCCCC6)C5)C[C@@H]4F)cccn3c2CC(F)(F)F)c(OC)c1 (stereo partly drawn) [Compound 45] | B (B: EC50 of the reference compound<EC50 of the compound≤3.0*EC50 of the reference compound) | C (C: GI50 of the compound ≥ 3 * GI50 of the reference compound) | 
